Source: ChEMBL document CHEMBL5325424, “Structural design, synthesis, and anti-Trypanosomatidae profile of new Pyridyl-thiazolidinones” (Eur J Med Chem, 2023)
Active and inactive are the calls of the source. The rule behind the calls is not given here.

Tests used:
[1] = Cytotoxicity against mouse RAW264.7 cells incubated for 48 hrs by MTT assay; assay type: toxicity, cell-based
[2] = test system: Trypanosoma cruzi; assay: Antitrypanosomal activity against Trypanosoma cruzi Y trypomastigotes infected in African green monkey Vero cells assessed as parasite growth inhibition incubated for 24 hrs by hemocytometry; assay type: functional, organism-based
[3] = Selectivity index, ratio of CC50 for mouse RAW264.7 cells to IC50 for Trypanosoma cruzi Y trypomastigotes infected in African green monkey Vero cells; assay type: toxicity; conditions: read-out: Ratio CC50/IC50
[4] = test system: Trypanosoma cruzi; assay: Antitrypanosomal activity against Trypanosoma cruzi Tulahuen amastigotes infected in mouse L929 cells assessed as parasite growth inhibition measured after 7 days by CPRG/Nonidet based assay; assay type: functional, organism-based; conditions: L929, 168 h
[5] = Selectivity index, ratio of CC50 for mouse RAW264.7 cells to IC50 for Trypanosoma cruzi Tulahuen amastigotes infected in mouse L929 cells; assay type: toxicity, cell-based; conditions: read-out: Ratio CC50/IC50
[6] = test system: Trypanosoma cruzi; assay: Induction of morphological changes in Trypanosoma cruzi trypomastigotes assessed as appearance of contorted body at IC50 incubated for 24 hrs by SEM analysis; assay type: functional, organism-based
[7] = test system: Trypanosoma cruzi; assay: Induction of morphological changes in Trypanosoma cruzi trypomastigotes assessed as appearance of rounded body at 2 times IC50 incubated for 24 hrs by SEM analysis; assay type: functional, organism-based
[8] = test system: Trypanosoma cruzi; assay: Induction of morphological changes in Trypanosoma cruzi trypomastigotes membrane assessed as appearance of membrane rupture at 2 times IC50 incubated for 24 hrs by SEM analysis
[9] = test system: Trypanosoma cruzi; assay: Induction of morphological changes in Trypanosoma cruzi trypomastigotes assessed as appearance of shortened flagellum at IC50 incubated for 24 hrs by SEM analysis; assay type: functional, organism-based
[10] = test system: Trypanosoma cruzi; assay: Induction of morphological changes in Trypanosoma cruzi trypomastigotes assessed as appearance of thinned flagellum at 2 times IC50 incubated for 24 hrs by SEM analysis; assay type: functional, organism-based
[11] = test system: Trypanosoma cruzi; assay: Induction of morphological changes in Trypanosoma cruzi trypomastigotes assessed as appearance of loss of cytoplasmic content at 2 times IC50 incubated for 24 hrs by SEM analysis; assay type: functional, organism-based
[12] = test system: Trypanosoma cruzi; assay: Induction of apoptosis in Trypanosoma cruzi trypomastigotes assessed as early apoptotic cells at IC50 incubated for 24 hrs by annexin V-FITC/PI staining based flow cytometry (reference value: 0.10 %); assay type: functional
[13] = test system: Trypanosoma cruzi; assay: Induction of apoptosis in Trypanosoma cruzi trypomastigotes assessed as late apoptotic cells at IC50 incubated for 24 hrs by annexin V-FITC/PI staining based flow cytometry (reference value: 2.58 %); assay type: functional
[14] = test system: Trypanosoma cruzi; assay: Induction of apoptosis in Trypanosoma cruzi trypomastigotes assessed as necrotic cells at IC50 incubated for 24 hrs by annexin V-FITC/PI staining based flow cytometry (reference value: 4.05 %); assay type: functional
[15] = test system: Trypanosoma cruzi; assay: Induction of apoptosis in Trypanosoma cruzi trypomastigotes assessed as early apoptotic cells at 2 times IC50 incubated for 24 hrs by annexin V-FITC/PI staining based flow cytometry (reference value: 0.10 %); assay type: functional
[16] = test system: Trypanosoma cruzi; assay: Induction of apoptosis in Trypanosoma cruzi trypomastigotes assessed as late apoptotic cells at 2 times IC50 incubated for 24 hrs by annexin V-FITC/PI staining based flow cytometry (reference value: 2.58 %); assay type: functional
[17] = test system: Trypanosoma cruzi; assay: Induction of apoptosis in Trypanosoma cruzi trypomastigotes assessed as necrotic cells at 2 times IC50 incubated for 24 hrs by annexin V-FITC/PI staining based flow cytometry (reference value: 4.05 %); assay type: functional
[18] = test system: Splenocyte; assay: Immunomodulatory activity in mouse splenocytes assessed as effect on IFN-gamma level at 10 ug/ml incubated for 24 to 96 hrs by flow cytometry; assay type: functional, cell-based; conditions: dose 10.0 µg/ml, time 24-96 hrs
[19] = test system: Splenocyte; assay: Immunomodulatory activity in mouse splenocytes assessed as reduction in IL-6 level at 10 ug/ml incubated for 24 hrs by flow cytometry; assay type: functional, cell-based; conditions: dose 10.0 µg/ml
[20] = test system: Splenocyte; assay: Immunomodulatory activity in mouse splenocytes assessed as reduction in IL-6 level at 10 ug/ml incubated for 96 hrs by flow cytometry; assay type: functional, cell-based; conditions: dose 10.0 µg/ml
[21] = test system: Leishmania amazonensis; assay: Antileishmanial activity against Leishmania amazonensis WHOM/00 LTB 0016 promastigotes assessed as parasite growth inhibition incubated for 72 hrs; assay type: functional, organism-based; conditions: WHOM/00 LTB 0016, 72 h
[22] = Selectivity index, ratio of CC50 for mouse RAW264.7 cells to IC50 for Leishmania amazonensis WHOM/00 LTB 0016 promastigotes; assay type: toxicity; conditions: read-out: Ratio CC50/IC50
[23] = test system: Leishmania amazonensis; assay: Antileishmanial activity against Leishmania amazonensis WHOM/00 LTB 0016 amastigotes infected in mouse RAW264.7 cells assessed as parasite growth inhibition incubated for 24 hrs by panoptic staining based assay; assay type: functional, organism-based; conditions: WHOM/00 LTB 0016, RAW264.7, 24 h
[24] = Selectivity index, ratio of CC50 for mouse RAW264.7 cells to IC50 for Leishmania amazonensis WHOM/00 LTB 0016 amastigotes infected in mouse RAW264.7 cells; assay type: toxicity, cell-based; conditions: read-out: Ratio CC50/IC50
[25] = test system: Splenocyte; assay: Immunomodulatory activity in mouse splenocytes assessed as reduction in IL-10 level at 10 ug/ml incubated for 24 hrs by flow cytometry; assay type: functional, cell-based; conditions: dose 10.0 µg/ml
[26] = test system: Splenocyte; assay: Immunomodulatory activity in mouse splenocytes assessed as increase in IL-6 level at 10 ug/ml incubated for 24 hrs by flow cytometry; assay type: functional, cell-based; conditions: dose 10.0 µg/ml
[27] = test system: Splenocyte; assay: Immunomodulatory activity in mouse splenocytes assessed as increase in IL-6 level at 10 ug/ml incubated for 48 to 72 hrs by flow cytometry; assay type: functional, cell-based; conditions: dose 10.0 µg/ml, time 48-72 hrs
[28] = test system: Trypanosoma cruzi; assay: Induction of morphological changes in Trypanosoma cruzi trypomastigotes assessed as appearance of loss of cytoplasmic content at IC50 incubated for 24 hrs by SEM analysis; assay type: functional, organism-based
[29] = test system: Trypanosoma cruzi; assay: Antitrypanosomal activity against Trypanosoma cruzi Y trypomastigotes assessed as parasite growth inhibition incubated for 24 hrs by Neubauer chamber based analysis; assay type: functional, organism-based
[30] = Cytotoxicity in BALB/c mouse splenocytes incubated for 24 hrs by [3H]-thymidine based liquid scintillation counter analysis; assay type: toxicity, cell-based, Splenocyte

Compound	IC50 [2]	IC50 [4]	Activity [8]	CC50 at 48 h [1]	selectivity ratio [3]	selectivity ratio [5]	Activity [6]	Activity [7]	Activity [9]	Activity [10]	Activity [11]	Activity [12]	Activity [13]	Activity [14]	Activity [15]	Activity [16]	Activity [17]	Activity [18]	IC50 [21]	selectivity ratio [22]	also measured
O=C(Cn1ccnc1[N+](=O)[O-])NCc1ccccc1 [BENZNIDAZOLE]		6.3 µM	Active	124 µM	8.5	19.6	Active	Active				0.88%	8.37%	11.69%	1.18%	22.44%	12.44%				Activity [28]: Active; Activity [19]: Active
C/C(=N\N=C1/NC(=O)C(c2ccccc2)S1)c1cc(Cl)ccc1Cl (stereo not given)																					IC50 [29]: 0.84 µM; CC50 at 24 h [30]: ≥ 100 µM

More lines, main results first:

IC50 [2]	IC50 [4]	Activity [8]	Compound	CC50 at 48 h [1]	selectivity ratio [3]	selectivity ratio [5]	Activity [6]	Activity [7]	Activity [9]	Activity [10]	Activity [11]	Activity [12]	Activity [13]	Activity [14]	Activity [15]	Activity [16]	Activity [17]	Activity [18]	IC50 [21]	selectivity ratio [22]	also measured
6.09 µM	0.19 µM	Active	S=C(N/N=C/c1ccccn1)Nc1ccccc1	6.09 µM	1	31.2	Active	Active	Active	Active	Active	0.07%	1.43%	6.13%	10.3%	2.9%	6.42%	inactive	11.8 µM	0.51	Activity [19]: Active; Activity [20]: Active; IC50 [23]: 36.7 µM; selectivity ratio [24]: 0.16
1 µM	0.6 µM	Active	CC(C)C1S/C(=N/N=C/c2ccccn2)N(c2ccccc2)C1=O (stereo not given)	47.4 µM	46.4	79	Active	Active	Active	Active	Active	0.97%	3.83%	6.38%	0.13%	4.02%	30.19%	inactive	150 µM	0.3	Activity [25]: Active; Activity [20]: Active; IC50 [23]: 16.8 µM; selectivity ratio [24]: 2.82
0.9 µM	0.64 µM	Active	CC1(C)S/C(=N/N=C/c2ccccn2)N(c2ccccc2)C1=O	146 µM	162	228	Active	Active	Active	Active	Active	0.18%	3.66%	21.53%	0.33%	4.4%	21.27%	inactive	42.2 µM	3.5	Activity [25]: Active; Activity [26]: Active; Activity [27]: Active; IC50 [23]: 9.58 µM; selectivity ratio [24]: 15.2
